Laboratory results from BindingDB's records for doi:10.1016/0960-894X(95)00299-9 (1995).

Assay: Tested for 50% of inhibition of Osteoclastic acid phosphatase (OAP) activity, determined using dose-response curve

Row | Compound | IC50 [µM]
1 | O=P(O)(O)C(Cc1ccc(Cl)cc1)c1cccc2ccccc12 (configuration not stated) [[2-(4-Chloro-phenyl)-1-naphthalen-1-yl-ethyl]-phosphonic acid] | 21
2 | O=P(O)(O)Cc1cccc2ccccc12 [naphthalen-1-ylmethylphosphonic acid] | 30
3 | O=P(O)(O)C(CC1CCCCC1)c1cccc2ccccc12 (configuration not stated) [(2-Cyclohexyl-1-naphthalen-1-yl-ethyl)-phosphonic acid] | 11.4
4 | O=P(O)(O)C(Cc1ccccc1)c1cccc2ccccc12 (configuration not stated) [(1-Naphthalen-1-yl-2-phenyl-ethyl)-phosphonic acid] | 21
5 | O=C(c1ccccc1)C(C(=O)c1ccccc1)(c1cccc2ccccc12)P(=O)(O)O [2-(naphthalen-1-yl)-1,3-dioxo-1,3-diphenylpropan-2-ylphosphonic acid] | 1.4
6 | O=P(O)(O)C(Cc1ccc(-c2ccccc2)cc1)c1cccc2ccccc12 (configuration not stated) [(2-Biphenyl-4-yl-1-naphthalen-1-yl-ethyl)-phosphonic acid] | 6.3
7 | Cc1ccc2ccccc2c1C(CC1CCCCC1)P(=O)(O)O (configuration not stated) [[2-Cyclohexyl-1-(2-methyl-naphthalen-1-yl)-ethyl]-phosphonic acid] | 11
